Experimental data reported in US6197797A, “Cyanoguanidines as cell proliferation inhibitors” (Leo Pharmaceutical Products Ltd. A/S (L.o slashed.vens …, priority 1997, dated 2001).

Key:
[1] = tested on: human small cell lung carcinoma (NYH); assay: Inhibition of tumour cell proliferation in vitro ([3H]thymidine incorporation), NYH; format: cell-based; details: 24 hours, read-out: The median inhibition concentration (IC50, nM) of NYH
Protocol: (§1) The inhibition of tumour cell proliferation was studied using different types of human cancer cell lines. The cell lines under investigation were small cell lung carcinoma (NYH), non small cell lung carcinoma (NCI-H460), and breast cancer (MCF-7) using the following general procedure.
(§2) The cells were cultured in vitro for 24 hours in the presence of the compound under investigation. DNA synthesis was measured by incorporation of [3H]thymidine, and the median inhibitory concentrations (IC50) of the compounds were calculated.

[2] = tested on: human non small cell lung carcinoma (NCI-H460); assay: Inhibition of tumour cell proliferation in vitro ([3H]thymidine incorporation), NCI-H460; format: cell-based; details: NCI-H460, 24 hours, read-out: The median inhibition concentration (IC50, nM) of NCI-H460
Protocol: as §1, §2

[3] = tested on: human breast cancer (MCF-7); assay: Inhibition of tumour cell proliferation in vitro ([3H]thymidine incorporation), MCF-7; format: cell-based; details: MCF7, MCF-7, 24 hours, read-out: The median inhibition concentration (IC50, nM) of MCF-7
Protocol: as §1, §2

[4] = tested on: Yoshida sarcoma tumour-bearing rats; assay: Prolongation of survival time of tumour-bearing rats; format: in vivo, LEW/Mol inbred female rats
Protocol: The prolongation of survival time of tumour-bearing rats was studied in LEW/Mol inbred female rats inoculated with Yoshida sarcoma cells in a number of 2×10^7 cells. Tumour-bearing rats (6 animals per group) were dosed orally once daily from day 3 after the transfer of tumour cells and until death or for a maximum of 21 days or until the body weights had increased by 10% as a consequence of tumour proliferation. The mean survival day of treated versus non-treated rats is used to calculate ILS (Increased Life Span). ILS=((mean treated/mean control)-1)*100%.

[5] = 20 mg/kg p.o. once daily from day 3, ILS=((mean treated/mean control)-1)*100%

SMILES	IC50 [1] [nM]	IC50 [2] [nM]	IC50 [3] [nM]	Increased life span (ILS) % ([4]; 50 mg/kg p.o. once daily from day 3, ILS=((mean treated/mean control)-1)*100%) [%]	Increased life span (ILS) % [4, 5] [%]
N#CNC(=Nc1ccncc1)NCCCCCOc1ccccc1 [prior art B, N-Cyano-N'-(5-phenoxypentyl)-N"-4-pyridylguanidine, reference compound]	–	–	–	35	–
N#CN=C(NCC/C=C/C=C/c1ccccc1)Nc1ccncc1 [Example 12, (E,E)-N-Cyano-N'-(6-phenylhex-3,5-dienyl)-N"-4-pyridylguanidine]	5.5	49	138	–	–
N#CNC(=Nc1ccncc1)NCCCCCc1ccccc1 [Example 1, N-Cyano-N'-(5-phenylpentyl)N"-4-pyridylguanidine]	–	–	40	–	49
N#CNC(=Nc1ccncc1)NCCCCCCCCCc1ccccc1 [Example 5, N-Cyano-N'-(9-phenylnonyl)-N"-4-pyridylguanidine]	5.3	5.8	29	–	–

Continued, in another order:

IC50 [1] [nM]	IC50 [2] [nM]	IC50 [3] [nM]	SMILES	Increased life span (ILS) % ([4]; 50 mg/kg p.o. once daily from day 3, ILS=((mean treated/mean control)-1)*100%) [%]	Increased life span (ILS) % [4, 5] [%]
6.1	78	74	N#CNC(=Nc1ccncc1)NCCCCC#Cc1ccccc1 [Example 14, N-Cyano-N'-(6-phenylhex-5-ynyl)-N"-4-pyridylguanidine]	–	–
7.3	135	54	N#CN=C(NCCCC/C=C\c1ccccc1)Nc1ccncc1 [Example 10, (Z)-N-Cyano-N'-(6-phenylhex-5-enyl)-N"-4-pyridylguanidine]	–	35
5	61	19	CCCCCCCCCCCCNC(=Nc1ccncc1)NC#N [Example 18, N-Cyano-N'-dodecyl-N"-4-pyridylguanidine]	–	–
